{"source": "patent US20050182100A1", "about": "“Method of use” (priority 2002, published 2005)", "key": {"[1]": {"conditions": "at neutral or acid pH; cited from earlier work"}, "[2]": {"tested_on": "patients affected by sleeping disturbance", "assay": "Administration of esomeprazole to patients affected by sleeping disturbance", "assay_type": "in vivo, human", "conditions": "especially with GERD, oral route", "from_the_text": "This applies especially to patients with GERD.\nWhile the effect on the symptoms of sleeping disturbance have been established in patients who have taken esomeprazole by the oral route, it is believed that the improved effect of esomeprazole is a systemic effect which is not dependent on what mode of administration that is used, and that accordingly the improved effect on sleeping and quality of life will be seen also with other routes of administration such as rectal or parenteral administration.\nThe invention is further exemplified by the following case studies. During oral treatment with esomeprazole for acid related diseases such as non-erosive and erosive induced upper gastrointestinal disorders, evidence has accumulated that esomeprazole may be beneficial for treatment of sleeping disturbance especially in patients with GERD and endoscopy negative GERD."}, "[3]": {"tested_on": "patients with dyspepsia associated with gastric ulcers, duodenal ulcers, reflux esophagitis and gastroesophageal reflux without esophagitis", "conditions": "clinical studies; cited from earlier work"}}, "data": [{"smiles": "COc1ccc2nc([S@@+]([O-])Cc3ncc(C)c(OC)c3C)[nH]c2c1", "note": "[esomeprazole, S-5-methoxy-2-[[(4-methoxy-3,5-dimethyl-2-pyridinyl)methyl]sulfinyl]-1H-benzimidazole]", "values": [{"measurement": "storage stability", "setting": "[1]", "value": "poor storage stability"}, {"measurement": "effect on symptoms of sleeping disturbance", "setting": "[2]", "value": "disappearance or great improvement of the symptoms"}]}, {"smiles": "COc1ccc2[nH]c([S+]([O-])Cc3ncc(C)c(OC)c3C)nc2c1", "note": "(racemic) [omeprazole, 5-methoxy-2-[[(4-methoxy-3,5-dimethyl-2-pyridinyl)methyl]sulfinyl]-1H-benzimidazole]", "values": [{"measurement": "healing of gastroduodenal and esophageal lesions and dyspeptic symptom resolution versus H2 receptor antagonists", "setting": "[3]", "value": "superior to H2 receptor antagonists"}]}]}
